Experiment: xn = mol fraction of the nth substance listed
Conditions: Liquid, Vibrating tube method

OCCO [1,2-ethanediol] + C[S+](C)[O-]
mass density [kg/m3]
Conditions | 101 kPa | 10000 kPa | 25000 kPa | 50000 kPa | 75000 kPa | 100000 kPa
298.15 K, x2 = 0 | – | – | – | – | – | 1145.51
298.15 K, x2 = 0.0181 | – | – | – | – | – | 1145.75
298.15 K, x2 = 0.0403 | – | – | – | – | – | 1145.93
298.15 K, x2 = 0.0701 | – | – | – | – | – | 1146.24
298.15 K, x2 = 0.1097 | – | – | – | – | 1138.51 | 1146.54
298.15 K, x2 = 0.1408 | – | – | – | – | 1138.73 | 1146.83
298.15 K, x2 = 0.1934 | – | – | – | – | 1138.98 | 1147.29
298.15 K, x2 = 0.234 | – | – | – | – | 1139.19 | 1147.46
298.15 K, x2 = 0.3244 | – | – | – | – | 1139.38 | 1147.77
298.15 K, x2 = 0.3764 | – | – | – | – | 1139.43 | 1147.93
298.15 K, x2 = 0.4429 | – | – | – | – | 1139.4 | 1148.01
298.15 K, x2 = 0.4892 | – | – | – | – | 1139.31 | 1147.94
298.15 K, x2 = 0.5654 | – | – | – | – | 1139.23 | 1147.85
298.15 K, x2 = 0.6946 | – | – | – | – | 1138.74 | 1147.55
298.15 K, x2 = 0.8142 | – | – | – | – | 1137.98 | 1146.87
298.15 K, x2 = 0.9266 | – | – | – | – | 1137.07 | 1146.03
308.15 K, x2 = 0 | – | 1107.05 | 1112.97 | 1122.28 | 1131.41 | 1139.57
308.15 K, x2 = 0.0181 | – | 1107.03 | 1113.01 | 1122.41 | 1131.6 | 1139.78
308.15 K, x2 = 0.0403 | – | 1106.95 | 1112.98 | 1122.46 | 1131.72 | 1139.87
308.15 K, x2 = 0.07007 | 1102.45 | – | – | – | – | –
308.15 K, x2 = 0.0701 | – | 1106.68 | 1112.81 | 1122.47 | 1131.86 | 1140.08
308.15 K, x2 = 0.1097 | 1102.12 | 1106.18 | 1112.54 | 1122.52 | 1132.17 | 1140.24
308.15 K, x2 = 0.1408 | 1101.88 | 1105.87 | 1112.37 | 1122.47 | 1132.33 | 1140.54
308.15 K, x2 = 0.1934 | 1101.33 | 1105.29 | 1111.97 | 1122.32 | 1132.37 | 1140.74
308.15 K, x2 = 0.234 | 1100.86 | 1104.74 | 1111.63 | 1122.23 | 1132.39 | 1140.88
308.15 K, x2 = 0.3244 | 1099.65 | 1103.53 | 1110.76 | 1121.85 | 1132.45 | 1140.94
308.15 K, x2 = 0.3764 | 1098.89 | – | – | 1121.58 | 1132.41 | 1140.97
308.15 K, x2 = 0.4429 | 1097.76 | 1101.57 | 1109.29 | 1121.09 | 1132.2 | 1140.85
308.15 K, x2 = 0.4892 | 1096.94 | 1100.74 | 1108.61 | 1120.71 | 1132.04 | 1140.71
308.15 K, x2 = 0.5654 | – | 1099.47 | 1107.59 | 1120.07 | 1131.68 | 1140.47
308.15 K, x2 = 0.6298 | 1094.18 | – | – | – | – | –
308.15 K, x2 = 0.6946 | 1092.91 | 1097.4 | 1105.69 | 1118.74 | 1130.89 | 1139.72
308.15 K, x2 = 0.8142 | 1090.07 | 1094.91 | 1103.81 | – | 1129.86 | 1138.6
308.15 K, x2 = 0.9266 | 1087.25 | 1092.99 | 1101.96 | 1115.8 | 1128.85 | 1137.41
308.15 K, x2 = 0.9577 | 1086.43 | – | – | – | – | –
308.15 K, x2 = 0.9836 | 1085.76 | 1091.87 | 1100.89 | 1115.04 | 1128.14 | 1136.73
308.15 K, x2 = 0.992 | 1085.53 | – | – | – | – | –
308.15 K, x2 = 0.9968 | 1085.39 | – | – | – | – | –
323.15 K, x2 = 0 | 1092.12 | – | – | 1112.75 | 1122.55 | 1130.66
323.15 K, x2 = 0.00452 | 1092.05 | – | – | – | – | –
323.15 K, x2 = 0.00721 | 1092.03 | – | – | – | – | –
323.15 K, x2 = 0.0181 | – | – | – | 1112.77 | 1122.62 | 1130.77
323.15 K, x2 = 0.01811 | 1091.95 | – | – | – | – | –
323.15 K, x2 = 0.03033 | 1091.83 | – | – | – | – | –
323.15 K, x2 = 0.04027 | 1091.72 | – | – | – | – | –
323.15 K, x2 = 0.0403 | – | – | – | 1112.8 | 1122.72 | 1130.87
323.15 K, x2 = 0.07007 | 1091.39 | – | – | – | – | –
323.15 K, x2 = 0.0701 | – | – | 1102.37 | 1112.82 | 1122.84 | 1130.96
323.15 K, x2 = 0.1097 | 1090.85 | 1095.4 | 1102.05 | 1112.71 | 1122.87 | 1131
323.15 K, x2 = 0.1408 | 1090.44 | 1095 | 1101.79 | 1112.64 | 1122.91 | 1131.06
323.15 K, x2 = 0.1934 | 1089.61 | 1094.25 | 1101.25 | 1112.4 | 1122.85 | 1130.99
323.15 K, x2 = 0.234 | – | 1093.65 | 1100.8 | 1112.23 | 1122.77 | 1130.94
323.15 K, x2 = 0.3244 | 1087.33 | 1092.16 | 1099.69 | 1111.61 | 1122.44 | 1130.63
323.15 K, x2 = 0.3764 | 1086.33 | 1091.26 | 1098.98 | 1111.18 | 1122.18 | 1130.38
323.15 K, x2 = 0.4429 | 1084.93 | 1090 | 1097.94 | 1110.52 | 1121.69 | 1129.92
323.15 K, x2 = 0.4892 | 1083.92 | – | 1097.2 | – | 1121.34 | 1129.57
323.15 K, x2 = 0.5654 | 1082.23 | 1087.55 | – | 1109.22 | 1120.75 | 1128.99
323.15 K, x2 = 0.6298 | 1080.61 | – | – | – | – | –
323.15 K, x2 = 0.6946 | 1079.07 | 1084.73 | 1093.6 | 1107.58 | 1119.48 | 1127.72
323.15 K, x2 = 0.8142 | 1075.74 | 1081.78 | 1091.06 | 1105.68 | 1117.9 | 1126.09
323.15 K, x2 = 0.867 | 1074.15 | – | – | – | – | –
323.15 K, x2 = 0.9266 | 1072.5 | 1078.85 | – | 1103.78 | 1116.27 | 1124.43
323.15 K, x2 = 0.9577 | 1071.55 | – | – | – | – | –
323.15 K, x2 = 0.9836 | 1070.76 | 1077.32 | 1087.21 | – | 1115.35 | 1123.49
323.15 K, x2 = 0.992 | 1070.5 | – | – | – | – | –
323.15 K, x2 = 0.9968 | 1070.35 | – | – | – | – | –

Source: the NIST ThermoML archive (doi:10.1021/je100089s)
